Literature values, collected in US9532968B1, “Fumarate compounds, pharmaceutical compositions thereof, and methods of use” (priority 2015, dated 2017).

aqueous solubility: poor
SMILES: COC(=O)/C=C/C(=O)OC [DMF, dimethylfumarate]
